Tested on: Vasopressin V2
Assay: Vasopressin V2 agonist effects of test compounds in normal conscious water-loaded rats
Type: in vivo
Conditions: Sprague-Dawley (CD) rats, oral 10 mg/kg, urine collected for four hours; for Osmolality (% Increase): change in osmolality as percent of control; for Urine Volume (% decrease): vs. control
Procedure: Vasopressin V2 Agonist Effects of Test Compounds in Normal Conscious Water-Loaded Rats:
On the day of test, rats were placed individually into metabolic cages equipped with devices to separate the feces from the urine and containers for collection of urine. Test compound or reference agent was given at an oral dose of 10 mg/kg in a volume of 10 ml /kg. […] Thirty minutes after dosing the test compound, rats were gavaged with water at 30 ml /kg into the stomach using a feeding needle. During the test, rats were not provided with water or food. Urine was collected for four hours after dosing of the test compound. At the end of four hours, urine volume was measured. […] Determinations of Na^+, K^+ and Cl^- ion were carried out using ion specific electrodes in a Beckman SYNCHRON EL-ISE Electrolyte System analyzer. […] In the screening test, two rats were used for each compound. If the difference in the urine volume of the two rats was greater than 50%, a third rat was used.

SMILES | Osmolality (% Increase) [%] | Urine Volume (% decrease) [%]
Cc1n[nH]c(-c2ccc(C(=O)N3Cc4cccn4Cc4ccccc43)cc2)n1 [Example 50, [4-(5-Methyl-2H-[1,2,4]triazol-3-yl)-phenyl]-(5H,11H-pyrrolo[2,1-c][1,4]-benzodiazepin-10-yl)-methanone] | 223 | 53
Cc1nc(-c2ccc(C(=O)N3Cc4cccn4Cc4ccccc43)cc2)n(C)n1 [Example 51, [4-(2,5-Dimethyl-2H-[1,2,4]triazol-3-yl)-phenyl]-(5H,11H-pyrrolo[2,1-c]-[1,4]benzodiazepin-10-yl)-methanone] | – | 72
Cc1noc(-c2ccc(C(=O)N3Cc4cccn4Cc4ccccc43)cc2)n1 [Example 52, [4-(3-Methyl[1,2,4]oxadiazol-5-yl)-phenyl]-(5H,11H-pyrrolo-[2,1-c][1,4]-benzodiazepin-10-yl)-methanone] | 261 | 66
Cn1cc(-c2ccc(C(=O)N3Cc4cccn4Cc4ccccc43)cc2)cn1 [Example 55, [4-(1-Methyl-1H-pyrazol-4-yl)-phenyl]-(5H,11H-pyrrolo[2,1-c][1,4]-benzodiazepin-10-yl)-methanone] | 164 | 80
Cn1cc(-c2ccc(C(=O)N3Cc4cccn4Cc4ccccc43)cn2)cn1 [Example 57, [6-(1-Methyl-1H-pyrazol-4-yl)-pyridin-3-yl]-(5H,11H-pyrrolo[2,1-c][1,4]-benzodiazepin-10-yl)-methanone] | 288 | 77
O=C(c1ccc(-n2cccn2)cc1)N1Cc2cccn2Cc2ccccc21 [Example 58, [4-(Pyrazol-1-yl)-phenyl]-(5H,11H-pyrrolo[2,1-c][1,4]benzodiazepin-10-yl)-methanone] | 324 | 49
Cc1ccn(-c2ccc(C(=O)N3Cc4cccn4Cc4ccccc43)cc2)n1 [Example 59, [4-(3-Methyl-pyrazol-1-yl)-phenyl]-(5H,11H-pyrrolo[2,1-c][1,4]-benzodiazepin-10-yl)-methanone] | 607 | 80
Cc1cnn(-c2ccc(C(=O)N3Cc4cccn4Cc4ccccc43)cc2)c1 [Example 60, [4-(4-Methyl-pyrazol-1-yl)-phenyl]-(5H,11H-pyrrolo[2,1-c][1,4]-benzodiazepin-10-yl)-methanone] | 165 | 54
Cc1cc(C)n(-c2ccc(C(=O)N3Cc4cccn4Cc4ccccc43)cc2)n1 [Example 61, [4-(3,5-Dimethyl-pyrazol-1-yl)-phenyl]-(5H,11H-pyrrolo[2,1-c][1,4]-benzodiazepin-10-yl)-methanone] | 245 | 59
O=C(c1ccc(-n2ccc(C(F)(F)F)n2)cc1)N1Cc2cccn2Cc2ccccc21 [Example 62, (5H,11H-Pyrrolo[2,1-c][1,4]benzodiazepin-10-yl)-[4-(3-trifluoromethyl-pyrazol-1-yl)-phenyl]-methanone] | 150 | 22
O=C(c1ccc(-n2ccnc2)cc1)N1Cc2cccn2Cc2ccccc21 [Example 63, [4-(Imidazol-1-yl)-phenyl]-(5H,11H-pyrrolo[2,1-c][1,4]benzodiazepin-10-yl)-methanone] | 214 | 27
Cc1cn(-c2ccc(C(=O)N3Cc4cccn4Cc4ccccc43)cc2)cn1 [Example 64, [4-(4-Methyl-imidazol-1-yl)-phenyl]-(5H,11H-pyrrolo[2,1-c][1,4]-benzodiazepin-10-yl)-methanone] | 349 | 79
Cn1ccc(-c2ccc(C(=O)N3Cc4cccn4Cc4ccccc43)c(Cl)c2)n1 [Example 71, [2-Chloro-4-(1-methyl-1H-pyrazol-3-yl)-phenyl]-(5H,11H-pyrrolo[2,1-c]-[1,4]benzodiazepine-10-yl)-methanone] | 264 | 84
N#Cc1ccc(C(=O)N2Cc3cccn3Cc3ccccc32)c(Cl)c1 [Example 77, 3-Chloro-4-(5H,11H-pyrrolo[2,1-c][1,4]benzodiazepine-10-carbonyl)-benzonitrile] | 90 | 13
O=C(O)c1ccc(C(=O)N2Cc3cccn3Cc3ccccc32)c(Cl)c1 [Example 78, 3-Chloro-4-(5H,11H-Pyrrolo[2,1-c][1,4]benzodiazepine-10-carbonyl)-benzoic acid] | 115 | 21
NC(=O)c1ccc(C(=O)N2Cc3cccn3Cc3ccccc32)c(Cl)c1 [Example 79, 3-Chloro-4-(5H,11H-pyrrolo[2,1-c][1,4]benzodiazepine-10-carbonyl)-benzamide] | 123 | 38

SMILES | Osmolality (% Increase) [%] | Urine Volume (% decrease) [%]
Cc1n[nH]c(-c2ccc(C(=O)N3Cc4cccn4Cc4ccccc43)c(Cl)c2)n1 [Example 81, [2-Choro-4-(5-methyl-2H-[1,2,4]triazol-3-yl)phenyl]-(5H,11H-pyrrolo[2,1-c][1,4]benzodiazepine-10-carbonyl)-methanone] | 490 | 82
O=C(c1ccc(-c2ncn[nH]2)cc1Cl)N1Cc2cccn2Cc2ccccc21 [Example 83, [2-Chloro-4-(2H-1,2,4-triazol-3-yl)-phenyl]-(5H,11H-pyrrolo[2,1-c][1,4]-benzodiazepin-10-yl)-methanone] | 442 | 85
Cn1ncnc1-c1ccc(C(=O)N2Cc3cccn3Cc3ccccc32)c(Cl)c1 [Example 84, [2-Chloro-4-(2-methyl-2H-[1,2,4]triazol-3-yl)-phenyl]-(5H,11H-pyrrolo [2,1-c][1,4]benzodiazepin-10-carbonyl)-methanone] | 291 | 56
Cc1nc(-c2ccc(C(=O)N3Cc4cccn4Cc4ccccc43)c(Cl)c2)n(C)n1 [Example 85, 4-[(2,5-Dimethyl-2H-[1,2,4]triazol-3-yl)-2-chloro-phenyl]-(5H,11H-pyrrolo[2,1-c][1,4]benzodiazepin-10-carbonyl)-methanone] | 436 | 76
O=C(c1ccc(-c2nnn[nH]2)cc1Cl)N1Cc2cccn2Cc2ccccc21 [Example 86, [2-Chloro-4-(1H-tetrazol-5-yl)-phenyl]-(5H,11H-pyrrolo[2,1-c][1,4]benzodiazepin-10-yl)-methanone] | 86 | 5
Cc1ccn(-c2ccc(C(=O)N3Cc4ccc(CN(C)C)n4Cc4ccccc43)c(Cl)c2)n1 [Example 87, [2-Chloro-4-(3-methyl-pyrazol-1-yl)-phenyl]-(3-dimethylaminomethyl-5H,11H-pyrrolo[2,1-c][1,4]benzodiazepin-10-yl)-methanone] | 214 | 71
Cc1ccn(-c2ccc(C(=O)N3Cc4ccc(Br)n4Cc4ccccc43)c(Cl)c2)n1 [Example 88, (3-Bromo-5H,11H-pyrrolo[2,1-c][1,4]benzodiazepin-10-yl)-[2-chloro-4-(3-methyl-pyrazol-1-yl)-phenyl]-methanone] | 226 | 68
Cc1ccn(-c2ccc(C(=O)N3Cc4cccn4Cc4ccccc43)c(Br)c2)n1 [Example 90] | 413 | 61
O=C(c1ccc(F)cc1F)N1Cc2cccn2Cc2ccccc21 [Example 91, (2,4-Difluoro-phenyl)-(5H,11H-pyrrolo[2,1-c][1,4]benzodiazepin-10-yl)-methanone] | 69 | 22
Cc1ccn(-c2ccc(C(=O)N3Cc4cccn4Cc4ccccc43)c(F)c2)n1 [Example 92, [2-Fluoro-4-(3-methyl-pyrazol-1-yl)-phenyl]-(5H,11H-pyrrolo[2,1-c][1,4]-benzodiazepin-10-yl)-methanone] | 454 | 69
Cc1ccn(-c2ccc(C(=O)N3Cc4ccnn4Cc4ccccc43)c(C(F)(F)F)c2)n1 [Example 95, [4-(3-Methylpyrazol-1-yl)-2-trifluoromethylphenyl]-[5H,11H-pyrazolo[5,1-c]-[1,4]benzodiazepin-10-yl)-methanone] | 300 | 68
Cc1ccn(-c2ccc(C(=O)O)c(Cl)c2)n1 [Example 97, 2-Chloro-4-(3-methyl-1H-pyrazol-1-yl)-benzoic acid] | 106 | 3
O=C(c1ccc(-n2cccn2)nc1Cl)N1Cc2cccn2Cc2ccccc21 [Example 99, (2-Chloro-6-pyrazol-1-yl-pyridin-3-yl)-(5H,11H-pyrrolo[2,1-c][1,4]benzodiazepin-10-yl)-methanone] | 205 | 43
Cc1ccn(-c2ccc(C(=O)N3Cc4cccn4Cc4ccccc43)c(Cl)n2)n1 [Example 100, [2-Chloro-6-(3-methylpyrazol-1-yl)-pyridin-3-yl]-(5H,11H-pyrrolo[2,1-c] [1,4]benzodiazepin-10-yl)-methanone] | 248 | 24
Cc1cnn(-c2ccc(C(=O)N3Cc4cccn4Cc4ccccc43)c(Cl)n2)c1 [Example 101, [2-Chloro-6-(4-methylpyrazol-1-yl)-pyridin-3-yl](5H,11H-pyrrolo[2,1-c] [1,4]benzodiazepin-10-yl)-methanone] | 376 | 76
